We go through 3 compounds from PMC9506414, “Novel 2,6,9-Trisubstituted Purines as Potent CDK Inhibitors Alleviating Trastuzumab-Resistance of HER2-Positive Breast Cancers” (Pharmaceuticals, 2022).

Read-outs that look alike come from different tables or passages of the source.

The subject of one data set is HCC1954 cells. The data set is described as follows: Antiproliferation assay (Cell-titer Glo, 72 h). The note with it: Homo sapiens. The format is cell-based. The method, boiled down:
(§1)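 Cells in RPMI/10% FBS were seeded at 5000 (SK-Br3) or 1000 (HCC-1954) per well and allowed 24 h to settle. Compounds were pin-transferred as 3-fold, 10-point duplicate series from a 10 mM stock and incubated 72 h at 37 °C. Viability was read by CellTiter-Glo luminescence and IC50 obtained by curve fitting.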

The next data set relates to SK-Br3 cells. The experiment in a line: Antiproliferation assay (Cell-titer Glo, 72 h). The note with it: Homo sapiens, SK-BR-3. The data set is classed as cell-based. The essentials: as §1
In data set [1] the test system is cyclinK. The experiment in a line: Western blot of cyclinK in SK-Br3 cells. The data set is classed as cell-based, human. The note with it: 2 h. The method, then:
(§2) The proteins were transferred to nitrocellulose membrane (Gelman Sciences, Ann Arbor, MI, USA) by electroblotting. The membranes were blocked with 5% non-fat dry milk (MB Cell, Seoul, Korea), incubated with primary antibodies for overnight at 4 °C. After the washing steps were performed with TBST solution, the membranes were incubated with HRP-conjugated secondary antibodies for 1 h at rt. After the secondary washing steps using TBST solution, protein bands on the membranes were visualized using enhanced chemiluminescence ECL detection reagent (Biorad Laboratories, Hercules, CA, USA).

Data set [2] has as its system Pol II p-CTD (Ser2). The experiment in a line: Western blot of Pol II p-CTD (Ser2) in SK-Br3 cells. The data set is classed as cell-based, human. The note with it: 2 h.
Excerpt: (§3) For Western blot analysis, the following antibodies were used: anti-Pol II CTD (2629S, Cell Signaling Technology, Danvers, MA, USA), anti-Pol II p-CTD (Ser2) (13499S, Cell Signaling Technology), anti-cyclinK (A301-939A-M, Bethyl Laboratories), anti-IRS1 (3407S, Cell Signaling Technology), anti-WNT1 (SC-514531, Santa Cruz Biotechnology, Dallas, TX, USA), anti-β-actin (MAB1501R, Millipore, Burlington, MA, USA), and horseradish peroxidase (HRP)-conjugated secondary antibodies (anti-mouse GTX213112-01; anti-rabbit GTX213110-01) (Genetex, Irvine, CA, USA).
as §2, with “Cells were lysed with lysis buffer containing 50 mM Tris pH 7.4, 150 mM NaCl, 1 mM EDTA, 1% NP-40, and 0.25% sodium deoxycholate supplemented with protease-inhibitor and phosphatase-inhibitor cocktails. The lysate samples (25 μg/lane) were loaded onto 6–12% sodium dodecyl sulfate polyacrylamide gel and separated by electrophoresis (SDS-PAGE). The proteins” for “The proteins”

Data set [3] deals with cyclinK. The data set is described as follows: Western blot of cyclinK in HCC1954 cells. The format is cell-based, human. The following applies: 40 and 200 nM (dinaciclib 40 nM), 2 h. As for the experimental part: as §2
The test system of data set [4] is Pol II p-CTD (Ser2). The data set is described as follows: Western blot of Pol II p-CTD (Ser2) in HCC1954 cells. The format is cell-based, human. The note with it: 40 and 200 nM (dinaciclib 40 nM), 2 h.
Excerpt: as §3
as §2, with “Cells were lysed with lysis buffer containing 50 mM Tris pH 7.4, 150 mM NaCl, 1 mM EDTA, 1% NP-40, and 0.25% sodium deoxycholate supplemented with protease-inhibitor and phosphatase-inhibitor cocktails. The lysate samples (25 μg/lane) were loaded onto 6–12% sodium dodecyl sulfate polyacrylamide gel and separated by electrophoresis (SDS-PAGE). The proteins” for “The proteins”

Data set [5] in a line: In vitro liver microsomal stability. The format is in vitro ADME. The following applies: liver microsomes, pH 7.4, 30 m at 37 °C with NADPH regeneration system. The method, then: Each compound (final 1 μM, duplicated) was added to each 0.1 M PBS solution (pH 7.4) containing liver microsome of three different species (human, dog, mouse). After a brief (5 m) incubation at 37 °C, the NADPH regeneration system (Promega Corp., Madison, WI, USA) was added, then the mixture was incubated at 37 °C for 30 m. The reaction was terminated by adding acetonitrile containing an internal standard (chlorpropamide), then the mixture was centrifuged at 15,000 rpm, 4 °C for 5 m. The supernatant solution was injected to LC/MS/MS system (TSQ Vantage Triple-Stage Quadrupole Mass Spectrometer, ThermoFisher Scientific, Waltham, MA, USA). The remaining substrates were analyzed with Xcalibur 4.4 s/w using an MRM (multiple reaction monitoring) quantitation mode.
On the technique in general: Liver microsomes are a subcellular fraction often used to study metabolism.

In a further data set the target is CYP2C9 (Homo sapiens, UniProt P11712). The data set is described as follows: CYP inhibition. The data set is classed as in vitro ADME. The method, then: Table 6 In vitro liver metabolic stability and activity against CYPs of potent analogues. | column: CYP % Activity at 10 μM / 2C9
Sequence of CYP2C9 (P11712 whole entry): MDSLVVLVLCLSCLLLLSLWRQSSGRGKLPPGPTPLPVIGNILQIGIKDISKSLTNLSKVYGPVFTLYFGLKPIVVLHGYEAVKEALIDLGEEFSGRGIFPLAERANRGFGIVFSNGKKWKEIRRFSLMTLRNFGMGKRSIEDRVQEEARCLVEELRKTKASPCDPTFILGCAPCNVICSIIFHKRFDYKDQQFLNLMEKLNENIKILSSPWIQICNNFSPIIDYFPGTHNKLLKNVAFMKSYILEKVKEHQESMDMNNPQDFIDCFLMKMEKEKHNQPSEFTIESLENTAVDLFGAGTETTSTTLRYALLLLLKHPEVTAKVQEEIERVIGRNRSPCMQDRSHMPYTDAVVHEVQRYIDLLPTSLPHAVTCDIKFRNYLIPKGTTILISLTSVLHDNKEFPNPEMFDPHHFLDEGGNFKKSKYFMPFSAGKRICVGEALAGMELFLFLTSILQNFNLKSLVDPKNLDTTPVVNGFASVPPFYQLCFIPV
A further data set deals with CYP2D6 (Homo sapiens, UniProt P10635). The data set is described as follows: CYP inhibition. The format is in vitro ADME. As for the experimental part:
Table 6 In vitro liver metabolic stability and activity against CYPs of potent analogues. | column: CYP % Activity at 10 μM / 2D6

The target of another data set is CYP3A4 (Homo sapiens, UniProt P08684). The data set is described as follows: CYP inhibition. The format is in vitro ADME. The method, then: Table 6 In vitro liver metabolic stability and activity against CYPs of potent analogues. | column: CYP % Activity at 10 μM / 3A4
Sequence of CYP3A4 (P08684 whole entry): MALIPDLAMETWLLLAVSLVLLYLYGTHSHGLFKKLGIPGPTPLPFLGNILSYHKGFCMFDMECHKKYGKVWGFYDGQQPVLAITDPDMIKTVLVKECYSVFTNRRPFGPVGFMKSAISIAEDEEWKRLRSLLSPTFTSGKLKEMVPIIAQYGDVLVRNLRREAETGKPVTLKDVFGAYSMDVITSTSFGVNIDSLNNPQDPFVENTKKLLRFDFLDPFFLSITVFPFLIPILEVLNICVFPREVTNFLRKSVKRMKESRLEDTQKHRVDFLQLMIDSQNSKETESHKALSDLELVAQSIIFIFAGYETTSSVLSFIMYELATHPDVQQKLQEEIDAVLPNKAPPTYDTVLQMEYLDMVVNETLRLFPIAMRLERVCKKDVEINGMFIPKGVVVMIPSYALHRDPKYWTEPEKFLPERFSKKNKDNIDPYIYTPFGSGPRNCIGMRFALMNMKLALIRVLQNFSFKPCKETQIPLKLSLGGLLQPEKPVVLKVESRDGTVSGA
Data set [6] has as its system IRS1. The data set is described as follows: Western blot of IRS1 in SK-Br3 cells. The format is cell-based, human. The note with it: 40 and 200 nM, 24 h.
Excerpt: as §3
(§4) Cells were lysed with lysis buffer containing 50 mM Tris pH 7.4, 150 mM NaCl, 1 mM EDTA, 1% NP-40, and 0.25% sodium deoxycholate supplemented with protease-inhibitor and phosphatase-inhibitor cocktails. The lysate samples (25 μg/lane) were loaded onto 6–12% sodium dodecyl sulfate polyacrylamide gel and separated by electrophoresis (SDS-PAGE). The proteins were transferred to nitrocellulose membrane (Gelman Sciences, Ann Arbor, MI, USA) by electroblotting. The membranes were blocked with 5% non-fat dry milk (MB Cell, Seoul, Korea), incubated with primary antibodies for overnight at 4 °C. After the washing steps were performed with TBST solution, the membranes were incubated with HRP-conjugated secondary antibodies for 1 h at rt. […]
(In general: A western blot detects proteins with antibodies after separation by electrophoresis.)

The subject of data set [7] is IRS1. The data set is described as follows: Western blot of IRS1 in HCC1954 cells. The format is cell-based, human. The note with it: 40 and 200 nM, 24 h.
Excerpt: as §3, §4

The mark [8] stands for this setting: 72 h, means and standard deviations from three independent assays, read-out: HCC1954 (GI50/μM).
[9] abbreviates: 72 h, means and standard deviations from three independent assays, read-out: SK-Br3 (GI50/μM).
[10] abbreviates: SK-Br3 cells, 40 and 200 nM (dinaciclib 40 nM).

Broadly, the amount remaining is what is left of the initial amount, in per cent. A high value points to greater stability.

Sequence of CYP2D6 (P10635 whole entry): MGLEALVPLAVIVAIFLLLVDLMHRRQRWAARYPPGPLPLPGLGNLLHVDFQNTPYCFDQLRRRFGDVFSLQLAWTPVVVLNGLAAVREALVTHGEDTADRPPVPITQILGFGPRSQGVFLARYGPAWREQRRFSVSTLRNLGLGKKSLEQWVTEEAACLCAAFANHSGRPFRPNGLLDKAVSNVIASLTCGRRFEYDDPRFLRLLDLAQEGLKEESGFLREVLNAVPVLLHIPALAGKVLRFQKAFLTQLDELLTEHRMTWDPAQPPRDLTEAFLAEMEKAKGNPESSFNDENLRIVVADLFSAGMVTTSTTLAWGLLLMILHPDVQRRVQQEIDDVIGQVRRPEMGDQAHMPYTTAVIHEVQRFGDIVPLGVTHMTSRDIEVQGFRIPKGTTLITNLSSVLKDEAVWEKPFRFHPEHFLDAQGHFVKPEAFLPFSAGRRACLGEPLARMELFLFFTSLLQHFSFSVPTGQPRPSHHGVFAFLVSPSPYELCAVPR

For `CCc1cnn2c(NCc3ccc[n+]([O-])c3)cc(N3CCCC[C@H]3CCO)nc12` [Dinaciclib], the GI50 in the data set with HCC1954 cells (setting [8]) and with SK-Br3 cells (setting [9]) was 0.012 ± 0.001 µM throughout. Besides, the “cyclinK level (Western blot)” value in the data set with cyclinK [1] (SK-Br3 cells, 0.2, 1 μM) is given as “marginal activity in downrgulating cyclinK”; in the data set on cyclinK [1] (setting [10]), “only a marginal downregulation of cyclinK”; with cyclinK [3], “only a marginal downregulation of cyclinK”. Moreover, the “PolII p-CTD (Ser2) level (Western blot)” value is “strongly suppressed PolII p-CTD” with Pol II p-CTD (Ser2) [2] (SK-Br3 cells, 0.2, 1 μM); “more potent inhibition of PolII CTD phosphorylation” in the data set with Pol II p-CTD (Ser2) [2] (setting [10]); “more potent inhibition of PolII CTD phosphorylation” in the data set on Pol II p-CTD (Ser2) [4].
Consider `CCn1cnc2c(NCc3ccc(-c4ccccn4)nc3)nc(-c3cnc(N)nc3)nc21` [Compound 30e, N-([2,2′-Bipyridin]-5-ylmethyl)-2-(2-aminopyrimidin-5-yl)-9-ethyl-9H-purin-6-amine], for which the GI50 in the data set with HCC1954 cells (setting [8]) was 0.034 ± 0.002 µM; in the data set on HCC1954 cells (read-out: HCC1954 GI50), 0.034 to 0.036 µM; with SK-Br3 cells (setting [9]) it was 0.052 ± 0.003 µM; in the data set with SK-Br3 cells (read-out: SK-Br3 GI50), 0.046 to 0.052 µM. Besides, the amount remaining at 30 min, 1 μM came out at 67.6% in [5] (dog), 100% in [5] (human) and 85% in data set [5] (mouse). Also, the “CYP % Activity at 10 μM 2C9” value at CYP2C9 was 81.6%. Further, the “CYP % Activity at 10 μM 2D6” value on CYP2D6 is given as 92.1%. On CYP3A4, the “CYP % Activity at 10 μM 3A4” value was found to be 92.8%. The “cyclinK level (Western blot)” value with cyclinK [1] (setting [10]) and in the data set on cyclinK [3] was “greatly downregulated in a dose-dependent manner” in each case. Moreover, the “PolII p-CTD (Ser2) level (Western blot)” value was “strong, dose-dependent suppression” with Pol II p-CTD (Ser2) [2] (setting [10]) and “strong, dose-dependent suppression” with Pol II p-CTD (Ser2) [4]. Moreover, the “IRS1 expression level (Western blot)” value is “strong suppression of IRS1 and WNT1” with IRS1 [6]; “strong suppression of IRS1 and WNT1” in the data set on IRS1 [7].
With `CCn1cnc2c(NCc3ccc(-c4ccccn4)nc3)nc(-c3ccc(N)nc3)nc21` [Compound 30d, N-([2,2′-Bipyridin]-5-ylmethyl)-2-(6-aminopyridin-3-yl)-9-ethyl-9H-purin-6-amine], the GI50 in the data set on HCC1954 cells (setting [8]) was 0.036 ± 0.005 µM; in the data set with HCC1954 cells (read-out: HCC1954 GI50) it was 0.034 to 0.036 µM; in the data set on SK-Br3 cells (setting [9]), 0.046 ± 0.007 µM; with SK-Br3 cells (read-out: SK-Br3 GI50), 0.046 to 0.052 µM. In addition, the fraction remaining at 30 min, 1 μM came out at 46.2% in data set [5] (dog), 64.8% in [5] (human) and 49.9% in data set [5] (mouse). The “CYP % Activity at 10 μM 2C9” value on CYP2C9 is recorded as 57.9%. The “CYP % Activity at 10 μM 2D6” value on CYP2D6 was determined as 81.0%. The “CYP % Activity at 10 μM 3A4” value on CYP3A4 is 43.0%. Moreover, the “cyclinK level (Western blot)” value with cyclinK [1] (setting [10]) and in the data set on cyclinK [3] was “greatly downregulated in a dose-dependent manner” in each case. Also, the “PolII p-CTD (Ser2) level (Western blot)” value in the data set with Pol II p-CTD (Ser2) [2] (setting [10]) was “strong, dose-dependent suppression”; with Pol II p-CTD (Ser2) [4], “strong, dose-dependent suppression”. Besides, the “IRS1 expression level (Western blot)” value is “strong suppression of IRS1 and WNT1” with IRS1 [6]; “strong suppression of IRS1 and WNT1” in the data set with IRS1 [7].
